Target: T1, Cyclin E/CDK2 (Homo sapiens, UniProt P24941)
T1 construct: made in house; host or cells: SF9 insect cells (baculovirus co-infection)
Test: Cyclin E/CDK2 in vitro kinase assay (33P-ATP, SPA beads)
Assay type: biochemical

Row | Structure (SMILES) | IC50 [µM]
1 | Cc1cc(Nc2cc(N3CC[C@@H](N)C3)nc3c(-c4cnn(C)c4)cnn23)sn1 | 49
2 | Cc1cc(Nc2cc(C3CCCNC3)nc3c(-c4coc(C=NO)c4)cnn23)sn1 (centres unmarked) | 0.05
3 | Cc1cc(Nc2cc(C3CNCCS3)nc3c(-c4cnn(C)c4)cnn23)sn1 (centres unmarked) | 40
4 | Cc1cc(Nc2cc(C3CCCNC3)nc3c(-c4coc(C#N)c4)cnn23)sn1 (centres unmarked) | 3.6
5 | Cc1cc(Nc2cc(C3CCCNC3)nc3c(-c4cncs4)cnn23)sn1 (centres unmarked) | 3.3
6 | Cc1cc(Nc2cc(C3CCCNC3)nc3c(Br)cnn23)sn1 (centres unmarked) | 0.076
7 | Cc1cc(Nc2cc(C3CCCNC3)nc3c(-c4cnn(C)c4)cnn23)sn1 (centres unmarked) | 46
8 | Cc1cc(Nc2cc(N3CC(N)C3)nc3c(-c4cnn(C)c4)cnn23)sn1 | 6.7
